In patent US20180296507A1, “REDOX-ACTIVATED GLYCOCONJUGATED PROCHELATORS” (ARIZONA BOARD OF REGENTS ON BEHALF OF THE UNIVERSITY OF …, priority 2013, published 2018):
Where “and” joins values, the source holds several entries; their conditions need not be identical. Equal values may be shown once. Entries after “also recorded” stand apart in the source; their conditions may differ.

What was measured:
CCD18-co cells = test: MTT cytotoxicity assay in CCD18-co cells; format: cell-based, human; conditions: 72 h exposure, average ± SD of triplicate
Protocol: (§1) Cell culture. Caco-2 (ATCC® HTB-37™) colorectal adenocarcinoma and CCD-18Co (ATCC® CRL-1459™) normal colon fibroblasts were cultured under a 5% CO2 humidified atmosphere at 37° C. in Eagle's Minimal Essential Medium (EMEM) supplemented with 10% fetal bovine serum (FBS), glutamine (2 mM), sodium pyruvate (1 mM), sodium bicarbonate (1.5 g/L), penicillin (100 units/mL), streptomycin (100 μg/mL) and human holo-transferrin (1.25 μM (1 mg/10 mL) prior to use. Flow cytometric analysis was performed at the University of Arizona Cytometry Core Facility (Arizona Cancer Center/Arizona Research Laboratories) using a FACSCanto II flow cytometer (BD Biosciences, San Jose, Calif.) equipped with an air-cooled 15-mW argon ion laser tuned to 488 nm. List mode data files consisting of 10,000 events gated on FSC (forward scatter) vs SSC (side scatter) were acquired and analyzed using CellQuest PRO software (BD Biosciences, San Jose, Calif.). Appropriate electronic compensation was adjusted by acquiring cell populations stained with each dye/fluorophore individually, as well as an unstained control.
(§2) Cytotoxicity assays. The cytotoxicity of the prochelators were assessed using MTT (3-(4,5-dimethylthiazol-2-yl)-2,5-diphenyl-tetrazolium bromide) assays after 72-hour incubations (Table 2). In all cases, the prochelator conjugates are more toxic (lower IC50 values) in the malignant Caco-2 cells than in the normal CCD18-co cells.
(§3) MTT (3-(4,5-dimethylthiazol-2-yl)-2,5-diphenyltetrazolium bromide) viability assays were conducted by standard methods with slight modifications. Cells were seeded at 4000 cells per well for Caco-2 and 10,000 cells per well for CCD18-co and allowed to attach for 24 h. Test compounds dissolved in DMSO were diluted in EMEM to the specified concentration (with final DMSO concentration limited to 0.1%). Cells were incubated in the presence of the test compounds for 72 h, then the MTT solution (4 mg/mL, 10 μL) was added to each well and incubated for 4 h. Following media removal, DMSO (100 μL) was added to each well to dissolve the purple formazan crystals and the plates were incubated for an additional 30 minutes. Absorption at 560 nm was recorded and data were analyzed using logarithmic fits to obtain IC50 values. Each experiment was conducted in triplicate, and values are given as averages plus/minus standard deviation.

Caco-2 cells = test: MTT cytotoxicity assay in Caco-2 cells; format: cell-based, human; conditions: for IC50: 72 h exposure, average ± SD of triplicate
Protocol: as §1, §2, §3

glucose transporters [1] = test: Competition assay of transporter-mediated uptake with 2-NBDG in Caco-2 cells (flow cytometry); format: cell-based, human; conditions: compound 50 μM; for Competition with 2-NBDG for transporter-mediated uptake: Caco-2 cells, 2-NBDG 100 μM, 40 min; for Competition with 2-NBDG (decrease in intracellular fluorescence): CACO-2 cells, 30 min, 2-NBDG 200 μM
Protocol: Co-treatment with glucose (10 mM) and glucose transporter (GLUT1) inhibitor phloretin (100 μM, 30 min) are employed as positive controls. Experiments were conducted in triplicate and values shown are averages±standard deviation. Statistical analysis: ** p<0.01, *** p<0.001 as compared to the control.
(§4) The competition assays used fluorescently labeled glucose bioprobe 2-(N-(7-nitrobenz-2-oxa-1,3-diazol-4-yl)amino)-2-deoxyglucose (2-NBDG). […] Without wishing to limit the present invention to any theory or mechanism, it is believed that the glycoconjugation may offer an advantageous increase in cancer cell specificity due to the conjugate being a substrate for the GLUT1 transporter protein and thus taking advantage of its overexpression in cancer cells as compared to normal cells.
Competition assay of transporter-mediated uptake. Caco-2 cells were plated at 1×10^6 cells per well in 6-well plates and allowed to adhere for 36 hours. Growth media were then removed and cells were incubated for 12 hours in glucose-free EMEM. […] As a positive control, after starvation cells were treated with 100 μM phloretin for 30 minutes, then treated with EMEM containing 100 μM 2-NBDG for 40 minutes. Cells were washed with PBS (1 mL) and detached by addition of Trypsin-EDTA (400 μL) and incubation for 3 minutes at 37° C. Following addition of EMEM (1 mL), the cell suspensions were centrifuged at 125 g for 10 minutes. The resulting pellets were suspended in PBS (0.5 mL) and transferred to a flow cytometry tube. Cells were stored on ice and analyzed by flow cytometry within 1 hour. Data are obtained as the average of three sets of geometric means of the flow cytometry histogram, and plotted as the percent difference from the control plus/minus the standard deviation between three values.

intracellular iron [2] = test: EPR experiments in whole leukemia cells; format: cell-based
Source text: Chelators (e.g., TC1SH, TC2SH, TC3SH) are released upon reduction of the disulfide bond. The reduced species (e.g., TC1SH, TC2SH, TC3SH) are tridentate iron chelators forming complexes of 2:1 ligand-to-metal stoichiometry. Magnetic measurements and X-ray crystallographic data on the resulting iron complexes (see FIG. 4, BF4^− counterion not shown) indicate that these chelators stabilize iron centers as low-spin Fe(III) species. […] The present invention is not limited to chelators that stabilize iron centers as low-spin Fe(III) species.

intracellular iron [3] = test: Calcein-based iron displacement assay in suspended Jurkat cells; format: cell-based
Source text: In some embodiments, intracellular activation and iron chelation may be investigated using a calcein-based iron displacement assay. This assay may confirm the activation of the prochelators for iron scavenging, and may also indicate the timeframe for cellular entry and iron binding. […] Data such as this may be collected for particular glycoconjugates to assess the duration of uptake and in particular to determine differences among systems carrying different connectivity (e.g., linker, position of glucose substitution) between the sugar and the prochelator units.

glucose transporters [4] = test: Competition assay with 2-NBDG in MDA-MB-231 cells (flow cytometry); format: cell-based; conditions: compound 25-100 μM, 30 min, 2-NBDG 200 μM
Source text: as §4

[5] = Aqueous solubility by UV-Vis absorption spectroscopy of saturated buffer solutions; format: physicochemical; conditions: 5.0 mM TRIS buffer, pH 7.40; average ± SD of triplicate
Protocol: Solubility measurements. The effect of the sugar motif on the aqueous solubility of the synthesized prochelators was investigated by UV-Visible absorption spectroscopy. Determination of molar extinction coefficients of each compound in aqueous buffer (5.0 mM TRIS, pH 7.40) allowed measurement of their concentration at saturation. Stock solutions were prepared in DMSO and diluted in TRIS buffer (5.0 mM, pH 7.40). Buffer solutions containing identical amounts of DMSO (0.3% v/v) were used to obtain blank spectra. […] For solubility measurements, saturated solutions were centrifuged for 20 minutes at 3,200 rpm to remove any precipitate and concentrations were determined by UV-Vis spectroscopy. […] Measurements were done in a set of triplicates.

## COc1ccc(NC(=S)NN=Cc2ccccc2SSCCC(=O)OCC2OC(O)C(O)C(O)C2O)cc1 (stereo not shown) [Compound M6TC4]
CCD18-co cells
  IC50: 62.2 ± 0.1 µM
Caco-2 cells; MTT
  IC50: 10.1 ± 0.3 µM
Glucose transporters [1]
  Competition with 2-NBDG for transporter-mediated uptake: competed successfully with 2-NBDG

## COc1ccc(NC(=S)NN=Cc2ccccc2SSCCC(=O)NC2C(O)OC(CO)C(O)C2O)cc1 (stereo not shown) [GA2TC4]
CCD18-co cells
  IC50: 22.5 ± 0.8 µM
Glucose transporters [1]
  Competition with 2-NBDG for transporter-mediated uptake: did not compete for uptake with 2-NBDG

## S=C(N/N=C/c1ccccc1SSc1ccccc1/C=N/NC(=S)Nc1ccccc1)Nc1ccccc1 [(TC1S)2]
Intracellular iron [2]
  Intracellular reduction/activation and formation of low-spin Fe(III) complex: direct evidence for both the reduction/activation
Intracellular iron [3]
  Timeframe of passive diffusion, activation and iron coordination: within minutes

## O=C(CCSSc1ccccc1C=NNC(=S)Nc1ccccc1)OCC1OC(O)C(O)C(O)C1O (stereo not shown) [Compound G6TC1]
Glucose transporters [1]
  Competition with 2-NBDG (decrease in intracellular fluorescence): better competitors of 2-NBDG; also recorded: over three times the decrease due to G2TC1

## COc1ccc(NC(=S)NN=Cc2ccccc2SSCCC(=O)OCC2OC(O)C(O)C(O)C2O)cc1 (stereo not shown) [Compound G6TC4]
CCD18-co cells
  IC50: 76 ± 2 µM
Caco-2 cells; MTT
  IC50: 6.9 ± 0.4 µM
Glucose transporters [1]
  Competition with 2-NBDG for transporter-mediated uptake: competes strongly with 2-NBDG for uptake; also recorded: competes aggressively with fluorescent glycoconjugate 2-NBDG

## O=C(CCSSc1ccccc1C=NNC(=S)Nc1ccccc1)NC1C(O)OC(CO)C(O)C1O (stereo not shown) [Compound G2TC1]
Glucose transporters [4]
  Uptake of 2-NBDG in the presence of compound: decreased uptake of the fluorescent glycoconjugate

## O=C(CCSSc1ccccc1C=NNC(=S)Nc1ccccc1)OCC1OC(O)C(O)C(O)C1O (stereo not shown) [Compound M6TC1]
Glucose transporters [1]
  Competition with 2-NBDG (decrease in intracellular fluorescence): better competitors of 2-NBDG

## COC(=O)CCSSc1ccccc1C=NNC(=S)Nc1ccc(OC)cc1 [ATC4]
[5]
  Concentration at saturation: 11 ± 1 μM and 4.7 ± 0.5 mg/L
CCD18-co cells
  IC50: 27.5 ± 0.4 µM
Caco-2 cells; MTT, 72 h
  Times more toxic in Caco-2 cells than in CCD18-co cells: 3 times
Caco-2 cells; MTT
  IC50: 8.1 ± 0.2 µM
Caco-2 cells; ratio of IC50 in normal CCD18-co cells relative to malignant Caco-2 cells
  Therapeutic Index: 3.4 ± 0.1

## COc1ccc(NC(=S)NN=Cc2ccccc2SSc2ccccc2C=NNC(=S)Nc2ccc(OC)cc2)cc1 [(TC4-S)2]
[5]
  Concentration at saturation: <5 μM and <3 mg/L
